Reference: article PMC6395926, “Mass Balance and Drug Interaction Potential of Intravenous Eravacycline Administered to Healthy Subjects” (Antimicrobial Agents and Chemotherapy, 2019)

What was measured:
[1] = Itraconazole drug interaction study: safety/tolerability; assay type: in vivo, human
Experimental: (§1) (iii) Study assessments. Blood samples for PK analysis of eravacycline and its metabolites, TP-498, TP-6208, and TP-034, were collected predose and 1, 2, 4, 6, 8, 12, 24, 36, and 48 h after the start of the i.v. infusion on day 1 and day 10 (itraconazole) or day 1 and day 17 (rifampin). Safety assessments included AEs, clinical laboratory safety tests (hematology, serum chemistry, electrolytes, coagulation, urinalysis, and lipid profile), vital signs, physical examinations, and 12-lead ECG.

[2] = Mass balance study: plasma PK of eravacycline, TP-498 and TP-6208 (LC-MS); assay type: in vivo, human; conditions: plasma, single i.v. dose of [14C]eravacycline
Source text: (ii) Study design. This was a single-center, open-label study of a single i.v. dose of [^14C]eravacycline to assess the mass balance recovery and PK of eravacycline. The primary objectives were to determine mass balance recovery, determine routes and rates of excretion, provide metabolite profiling and structural identification, and assess the PK of radioactivity in plasma and whole blood. Subjects were screened for inclusion in the study, including a detailed medical history, physical examination, and laboratory evaluations, in the 28 days before dosing. Eligible subjects were admitted to the clinical study unit at approximately 21:00 on the evening prior to study drug administration (day −1) and remained on site until 240 h postdose for collection of urine, feces, and blood samples. After an overnight fast, each subject received 60 mg [^14C]eravacycline containing not more than 3.8 MBq (105 μCi) ^14C as a single i.v. infusion over 60 min.
(vi) Study assessments. PK parameters were determined for total radioactivity in plasma and whole blood. Eravacycline, TP-498, and TP-6208 concentrations in plasma were quantified using a validated assay with internal standards. The following PK parameters were determined: Cmax, Tmax, time from dosing before the first quantifiable concentration in a concentration versus time profile (Tlag), AUC0–t, AUC0–24, AUC0–∞, the percentage of AUC0–∞ extrapolated beyond the time of the last measurable concentration (AUC%extrap), the slope of the apparent terminal phase (lambda-z), the apparent terminal half-life (t1/2), the mean residence time estimated between time zero and infinity (MRT0-∞), the apparent volume of plasma cleared of analyte per unit time (CL), and the volume of distribution of analyte at steady state (Vss).
Plasma concentrations of eravacycline, TP-498, and TP-6208 were measured by liquid chromatography with tandem mass spectrometry (LC-MS). The LLOQ was 5 ng/ml for eravacycline, TP-498, and TP-6208. The calibration ranges for eravacycline, TP-498, and TP-6208 in human urine were 50 to 10,000 ng/ml, 50 to 1,000 ng/ml, and 20 to 1,000 ng/ml, respectively. The calibration ranges for eravacycline, TP-498, and TP-6208 in human plasma were 5 to 500 ng/ml.
(viii) Study analysis. Descriptive statistics (mean, median, standard deviation [SD], percent coefficient of variation [%CV], minimum, maximum, number, geometric mean, and geometric %CV) were calculated for all concentration data. Pharmacokinetic parameters were calculated using Phoenix WinNonlin v6.3 (Certera USA, Inc.).

[3] = Drug interaction study with itraconazole (CYP3A4 inhibitor): plasma PK of i.v. eravacycline and metabolites; assay type: in vivo, human; conditions: for AUC(0-t) / Cmax / clearance / half-life / Vd: human, plasma, iv, mean ± SD, n = 10; for Vd: read-out: Vss
Experimental: Two single-center, open-label studies were conducted to evaluate the effects of itraconazole (CYP3A4 inhibitor) and rifampin (CYP3A4 inducer) on the pharmacokinetics of i.v. eravacycline in healthy subjects.
(ii) Study design. Each study included a 28-day screening period, a 13-day treatment period (19 days for rifampin), and an end-of-study visit 2 weeks after the last dose of study drug. Eravacycline was administered in the morning as a 1-mg/kg i.v. infusion over 60 min on day 1 with a second dose on day 10 (itraconazole study) or day 17 (rifampin study). For the itraconazole study, 200 mg oral itraconazole was administered q12h on day 8 and q24h on days 9 and 10. For the rifampin study, 600 mg oral rifampin was administered q24h from day 8 to day 17. All study treatments were administered in the fasting state.
as §1
Concentrations of eravacycline, TP-498, and TP-6208 in human plasma samples were measured by LC-tandem MS after solid-phase extraction over a calibration range of 5.00 to 500 ng/ml. The LLOQ for eravacycline, TP-498, TP-6208, and TP-034 in human plasma was 5.00 ng/ml. Samples with eravacycline initial concentrations above the upper limit of quantification (500 ng/ml) were diluted appropriately with control blank human plasma and reanalyzed. There was no interference seen when human plasma was fortified with eravacycline, TP-498, TP-6208, and either itraconazole or rifampin.
(iv) Pharmacokinetic analysis. PK assessments included Cmax, Tmax, AUC0–24, AUC0–t, t1/2, CL, and Vss. Actual sampling time was used for PK calculations. PK parameters were derived by noncompartmental analysis. Descriptive statistics were calculated for analyte concentrations at each evaluation time point and for all quantitative PK parameters of eravacycline, TP-498, TP-6208, and TP-034 for day 1 and day 10 (day 17 for rifampin). The effect of itraconazole or rifampin on the PK profile of i.v. eravacycline was evaluated by comparing log-transformed PK parameters (Cmax and AUC0–t) associated with the administration of study drug on day 1 and day 10 (itraconazole) or day 1 and day 17 (rifampin) using paired t tests. The ratio and 90% confidence interval (CI) were presented after back transformation to the original scale. Pharmacokinetic variables were calculated using WinNonlin Professional.

[4] = design: method as in PMID 30150464; conditions: healthy volunteers, i.v. 1 mg/kg q12h for 10 days; cited from earlier work
[5] = human, iv, 60 mg, geometric mean (%CV), n = 2
[6] = eravacycline plus itraconazole (day 10) vs eravacycline alone (day 1), 1 mg/kg i.v.
[7] = day 1, eravacycline 1 mg/kg i.v. alone
[8] = day 10, eravacycline 1 mg/kg i.v. with itraconazole

In the case of `CN(C)[C@@H]1C(O)=C(C(N)=O)C(=O)[C@@]2(O)C(O)=C3C(=O)c4c(O)c(NC(=O)CN5CCCC5)cc(F)c4C[C@H]3C[C@@H]12` [eravacycline], the “subjects who experienced an AE” value ([1]; eravacycline i.v. plus itraconazole treatment period, 1 of 10 subjects) is reported as 10.0%, the “subjects who experienced an AE” value ([1]; eravacycline i.v. treatment period, 1 of 12 subjects) is reported as 8.3% and the “serious AEs or discontinuations for AEs related to study drug” value ([1]; itraconazole study) is reported as “No serious AEs”. The clearance [2, 5] was 228 ± 13.8 mL/min, the half-life [2, 5] was 18.2 ± 5 h and the MRT inf ([2]; human, iv, 60 mg, geometric mean (%CV), n = 2, read-out: MRT0-∞) was 15.9 ± 8.9 h. It also gave a CL renal ([2]; human, iv, 60 mg, geometric mean (%CV), n = 5) of 41.9 ± 16.6 mL/min, a Tmax ([2]; male, human, iv, 60 mg) of 0.55 to 1 h and an AUC(0-inf) ([2]; male, human, iv, 60 mg, geometric mean (%CV), n = 2) of 4.38 µg·h/mL. The Cmax ([2]; male, human, iv, 60 mg, geometric mean (%CV), n = 5, read-out: Cmax) was 1.1 µg/mL, the Vd ([2]; male, human, iv, 60 mg, geometric mean (%CV), n = 2, read-out: Vss (volume of distribution)) was 217 ± 4.9 L and the “time postdose plasma concentrations were quantifiable” value [2] was “approximately 73 h”. For the same molecule, the “Ratio of geometric mean AUC0–t, day 10/day 1” value [3, 6] was 134.3%, the “Ratio of geometric mean Cmax, day 10/day 1” value [3, 6] was 107.9% and the “decrease of CL with itraconazole” value ([3]; eravacycline plus itraconazole day 10 vs day 1) was “about 30%”. The AUC(0-t) [3, 7] was 4.32 µg·h/mL, the Cmax [3, 7] was 1.1 µg/mL and the clearance [3, 7] was 0.227 ± 0.0618 L/h/kg. It also gave a half-life [3, 7] of 14 ± 2.4 h, a Vd [3, 7] of 3.42 ± 0.73 L/kg and an AUC(0-t) [3, 8] of 5.7 µg·h/mL. The Cmax [3, 8] was 1.16 µg/mL, the clearance [3, 8] was 0.154 ± 0.03 L/h/kg and the half-life [3, 8] was 19 ± 3.6 h. The Vd [3, 8] was 3.37 ± 0.56 L/kg, the “AUC0–12” value [4] was 6,309 ng·h/ml and the “clearance (CL)” value [4] was 0.16 L/h/kg. The “mean peak plasma concentration (Cmax)” value [4] was 1,825 ng/ml and the “volume of distribution at steady state (Vss)” value [4] was 4.0 L/kg.
